Measured values: publication PMC8842743 (Journal of Alzheimer's Disease Reports, 2022)

Tested on: healthy subjects
Test: Clinical liver safety laboratory data over time
Format: in vivo, human
Conditions: mean (SD)

## COc1cnc(C(=O)Nc2ccc(F)c([C@]34CN(c5ncc(F)cn5)C[C@H]3CSC(N)=N4)c2)cn1 [LY3202626]
1 mg daily, Day 1 predose
  ALP: 62.8 (7.6) U/L
  ALT: 19.0 (11.8) U/L
  AST: 18.4 (6.7) U/L
  Albumin: 43.9 (1.5) g/L
  GGT: 22.3 (14.8) U/L
  Total Bilirubin: 10.7 (2.8) umol/L
1 mg daily, Day 2
  ALP: 62.2 (8.7) U/L
  ALT: 18.9 (11.8) U/L
  AST: 18.4 (6.5) U/L
  Albumin: 43.8 (3.0) g/L
  GGT: 21.8 (15.6) U/L
  Total Bilirubin: 10.7 (2.6) umol/L
1 mg daily, Day 3
  ALP: 62.3 (8.4) U/L
  ALT: 18.7 (10.6) U/L
  AST: 16.1 (4.7) U/L
  Albumin: 43.1 (2.4) g/L
  GGT: 20.9 (13.9) U/L
  Total Bilirubin: 8.9 (2.3) umol/L
1 mg daily, Day 4
  ALP: 64.7 (10.7) U/L
  ALT: 20.4 (10.1) U/L
  AST: 19.6 (5.5) U/L
  Albumin: 44.0 (2.4) g/L
  GGT: 21.4 (14.5) U/L
  Total Bilirubin: 7.4 (4.2) umol/L
1 mg daily, Day 6
  ALP: 61.0 (10.9) U/L
  ALT: 18.9 (7.0) U/L
  AST: 17.7 (4.8) U/L
  Albumin: 43.1 (2.4) g/L
  GGT: 19.4 (11.8) U/L
  Total Bilirubin: 8.5 (4.5) umol/L
1 mg daily, Day 8
  ALP: 62.4 (11.3) U/L
  ALT: 20.8 (8.4) U/L
  AST: 21.3 (13.2) U/L
  Albumin: 44.1 (2.0) g/L
  GGT: 18.8 (11.5) U/L
  Total Bilirubin: 7.9 (5.0) umol/L
1 mg daily, Day 10
  ALP: 62.6 (10.0) U/L
  ALT: 24.6 (19.6) U/L
  AST: 30.2 (39.0) U/L
  Albumin: 43.3 (2.2) g/L
  GGT: 18.7 (11.3) U/L
  Total Bilirubin: 7.2 (2.1) umol/L
1 mg daily, Day 12
  ALP: 62.1 (9.7) U/L
  ALT: 24.2 (21.2) U/L
  AST: 26.2 (29.7) U/L
  Albumin: 43.2 (1.5) g/L
  GGT: 18.0 (9.9) U/L
  Total Bilirubin: 8.0 (2.8) umol/L
1 mg daily, Day 14
  ALP: 61.3 (10.6) U/L
  ALT: 22.8 (17.2) U/L
  AST: 20.2 (13.1) U/L
  Albumin: 43.6 (2.6) g/L
  GGT: 18.0 (10.1) U/L
  Total Bilirubin: 9.1 (2.7) umol/L
1 mg daily, Day 15
  ALP: 59.6 (9.6) U/L
  ALT: 20.8 (15.5) U/L
  AST: 18.3 (9.7) U/L
  Albumin: 42.6 (2.2) g/L
  GGT: 18.2 (11.0) U/L
  Total Bilirubin: 9.2 (2.5) umol/L
1 mg daily, Day 17
  ALP: 63.9 (10.6) U/L
  ALT: 23.2 (12.8) U/L
  AST: 19.3 (6.0) U/L
  Albumin: 46.0 (2.8) g/L
  GGT: 20.1 (11.8) U/L
  Total Bilirubin: 8.2 (4.0) umol/L
6 mg daily, Day 1 predose
  ALP: 64.6 (16.9) U/L
  ALT: 17.6 (5.5) U/L
  AST: 18.9 (4.0) U/L
  Albumin: 45.0 (1.7) g/L
  GGT: 21.6 (10.7) U/L
  Total Bilirubin: 8.9 (3.6) umol/L
6 mg daily, Day 2
  ALP: 66.4 (20.2) U/L
  ALT: 17.8 (3.8) U/L
  AST: 18.0 (3.0) U/L
  Albumin: 45.8 (2.5) g/L
  GGT: 21.7 (9.5) U/L
  Total Bilirubin: 9.8 (4.5) umol/L
6 mg daily, Day 3
  ALP: 65.8 (18.6) U/L
  ALT: 18.9 (4.7) U/L
  AST: 17.8 (2.9) U/L
  Albumin: 46.3 (2.1) g/L
  GGT: 22.3 (11.2) U/L
  Total Bilirubin: 7.4 (3.1) umol/L
6 mg daily, Day 4
  ALP: 67.8 (18.4) U/L
  ALT: 20.9 (5.2) U/L
  AST: 19.8 (4.7) U/L
  Albumin: 47.0 (1.9) g/L
  GGT: 24.0 (11.0) U/L
  Total Bilirubin: 6.9 (2.4) umol/L
6 mg daily, Day 6
  ALP: 63.9 (17.8) U/L
  ALT: 18.9 (4.4) U/L
  AST: 19.7 (4.9) U/L
  Albumin: 45.3 (2.7) g/L
  GGT: 22.0 (10.8) U/L
  Total Bilirubin: 8.4 (4.0) umol/L
6 mg daily, Day 8
  ALP: 64.6 (17.6) U/L
  ALT: 18.6 (2.5) U/L
  AST: 20.8 (6.2) U/L
  Albumin: 46.3 (1.6) g/L
  GGT: 21.7 (10.8) U/L
  Total Bilirubin: 8.1 (2.8) umol/L
6 mg daily, Day 10
  ALP: 62.9 (15.4) U/L
  ALT: 17.9 (2.3) U/L
  AST: 19.6 (6.0) U/L
  Albumin: 46.0 (1.7) g/L
  GGT: 20.6 (8.7) U/L
  Total Bilirubin: 8.2 (2.7) umol/L
6 mg daily, Day 12
  ALP: 63.6 (17.2) U/L
  ALT: 16.9 (2.5) U/L
  AST: 17.2 (3.8) U/L
  Albumin: 46.7 (1.6) g/L
  GGT: 20.3 (8.2) U/L
  Total Bilirubin: 7.4 (2.4) umol/L
6 mg daily, Day 14
  ALP: 62.2 (16.0) U/L
  ALT: 15.2 (2.5) U/L
  AST: 15.3 (4.3) U/L
  Albumin: 44.4 (1.8) g/L
  GGT: 19.3 (10.3) U/L
  Total Bilirubin: 8.1 (5.0) umol/L
6 mg daily, Day 15
  ALP: 58.9 (14.3) U/L
  ALT: 16.1 (2.9) U/L
  AST: 15.9 (3.9) U/L
  Albumin: 43.8 (2.1) g/L
  GGT: 18.6 (8.6) U/L
  Total Bilirubin: 7.3 (3.0) umol/L
6 mg daily, Day 17
  ALP: 65.0 (18.7) U/L
  ALT: 19.8 (4.3) U/L
  AST: 18.9 (3.5) U/L
  Albumin: 46.0 (1.7) g/L
  GGT: 20.9 (9.7) U/L
  Total Bilirubin: 6.3 (4.7) umol/L
26 mg daily, Day 1 predose
  ALP: 56.9 (12.0) U/L
  ALT: 16.9 (6.3) U/L
  AST: 15.2 (2.5) U/L
  Albumin: 46.3 (1.9) g/L
  GGT: 18.3 (8.2) U/L
  Total Bilirubin: 9.0 (2.6) umol/L
26 mg daily, Day 2
  ALP: 57.9 (11.3) U/L
  ALT: 15.6 (6.2) U/L
  AST: 14.6 (2.7) U/L
  Albumin: 46.2 (1.9) g/L
  GGT: 18.9 (8.5) U/L
  Total Bilirubin: 8.6 (2.6) umol/L
26 mg daily, Day 3
  ALP: 57.2 (11.1) U/L
  ALT: 16.2 (6.4) U/L
  AST: 14.9 (3.6) U/L
  Albumin: 45.0 (2.7) g/L
  GGT: 18.6 (8.8) U/L
  Total Bilirubin: 7.1 (2.3) umol/L
26 mg daily, Day 4
  ALP: 58.6 (10.8) U/L
  ALT: 16.9 (5.6) U/L
  AST: 16.8 (3.8) U/L
  Albumin: 46.0 (1.9) g/L
  GGT: 19.0 (9.6) U/L
  Total Bilirubin: 6.7 (1.4) umol/L
26 mg daily, Day 6
  ALP: 57.6 (12.0) U/L
  ALT: 16.2 (5.2) U/L
  AST: 17.8 (3.2) U/L
  Albumin: 44.9 (2.0) g/L
  GGT: 18.2 (8.5) U/L
  Total Bilirubin: 8.6 (3.0) umol/L
26 mg daily, Day 8
  ALP: 59.3 (10.8) U/L
  ALT: 16.8 (4.5) U/L
  AST: 16.4 (3.0) U/L
  Albumin: 46.3 (2.9) g/L
  GGT: 18.6 (7.2) U/L
  Total Bilirubin: 8.6 (4.6) umol/L
26 mg daily, Day 10
  ALP: 60.7 (11.4) U/L
  ALT: 15.8 (5.5) U/L
  AST: 16.1 (2.7) U/L
  Albumin: 45.8 (2.0) g/L
  GGT: 17.9 (7.4) U/L
  Total Bilirubin: 8.7 (4.2) umol/L
26 mg daily, Day 12
  ALP: 60.1 (9.6) U/L
  ALT: 16.9 (5.6) U/L
  AST: 18.3 (3.5) U/L
  Albumin: 44.9 (2.3) g/L
  GGT: 17.7 (7.4) U/L
  Total Bilirubin: 8.3 (4.5) umol/L
26 mg daily, Day 14
  ALP: 59.3 (10.2) U/L
  ALT: 17.1 (7.4) U/L
  AST: 16.3 (4.0) U/L
  Albumin: 43.7 (2.2) g/L
  GGT: 18.1 (8.8) U/L
  Total Bilirubin: 5.8 (2.4) umol/L
26 mg daily, Day 15
  ALP: 58.6 (9.6) U/L
  ALT: 16.8 (7.8) U/L
  AST: 16.2 (4.6) U/L
  Albumin: 44.0 (2.6) g/L
  GGT: 17.6 (8.8) U/L
  Total Bilirubin: 7.2 (1.9) umol/L
26 mg daily, Day 17
  ALP: 65.7 (11.5) U/L
  ALT: 20.0 (9.8) U/L
  AST: 18.6 (6.2) U/L
  Albumin: 45.9 (1.3) g/L
  GGT: 20.7 (11.1) U/L
  Total Bilirubin: 7.3 (4.6) umol/L
